From patent US20250221966A1, “RXFP1 AGONISTS” (BRISTOL-MYERS SQUIBB COMPANY, priority 2021, published 2025) come the findings set out here.

This assay deals with T1, human RXFP1 (Homo sapiens, UniProt Q9HBX9).
T1 construct: expressed in transfected cells
T1 sequence (Q9HBX9 1-757): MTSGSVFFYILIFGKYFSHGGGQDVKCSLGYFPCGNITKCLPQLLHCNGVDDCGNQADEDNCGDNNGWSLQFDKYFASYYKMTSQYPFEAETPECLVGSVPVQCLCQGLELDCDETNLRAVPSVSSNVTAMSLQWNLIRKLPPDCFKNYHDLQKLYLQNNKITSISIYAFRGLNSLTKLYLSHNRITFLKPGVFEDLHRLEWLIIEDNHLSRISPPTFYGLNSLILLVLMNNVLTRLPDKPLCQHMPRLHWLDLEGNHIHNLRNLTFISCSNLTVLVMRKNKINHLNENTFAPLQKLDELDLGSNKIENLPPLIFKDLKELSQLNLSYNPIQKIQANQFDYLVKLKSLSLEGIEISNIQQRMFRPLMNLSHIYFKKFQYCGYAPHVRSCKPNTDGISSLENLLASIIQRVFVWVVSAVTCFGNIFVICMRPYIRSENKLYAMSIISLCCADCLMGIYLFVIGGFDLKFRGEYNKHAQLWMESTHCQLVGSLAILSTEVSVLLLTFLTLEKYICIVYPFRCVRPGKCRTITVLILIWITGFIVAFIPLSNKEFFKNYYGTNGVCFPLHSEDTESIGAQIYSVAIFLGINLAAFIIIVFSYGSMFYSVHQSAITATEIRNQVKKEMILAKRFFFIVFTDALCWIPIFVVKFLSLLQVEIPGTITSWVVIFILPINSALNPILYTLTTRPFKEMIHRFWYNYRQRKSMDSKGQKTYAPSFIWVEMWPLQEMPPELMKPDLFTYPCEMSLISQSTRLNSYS
Briefly: RXFP1 cAMP assay (hRXFP1 HEK293 cAMP assay, HTRF). Format: cell-based. Particulars: HEK293 cells stably expressing human RXFP1, 30 min at room temperature, read-out: cAMP hRXFP1 HEK293 Assay EC50. The gist of the method: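 hRXFP1-HEK293 stable line; HBSS + Ca/Mg, 20 mM HEPES, 0.05% BSA, 0.5 mM IBMX; cpd 0.010 nM–50 μM, 2% DMSO; 30 min RT; lysis, HTRF cAMP detection; 4-PL fit.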
A general note: Cyclic AMP is a second messenger, typically raised through Gs and lowered through Gi signalling.

Consider `COc1ccc(-c2cnc3n2CC(O)CC3)cc1C(=O)N[C@H]1[C@@H](C(=O)Nc2ccc(F)c(C(F)(F)F)c2)[C@H]2CC[C@@H]1/C2=C\C1CC1` (stereo partly shown) [compound 755], for which the EC50 was determined as 5 nM. Under `O=C(N[C@H]1[C@@H](C(=O)Nc2ccc(F)c(C(F)(F)F)c2)[C@H]2CC[C@@H]1/C2=C\C1CC1)c1cc(C2=NOC3CC(CO)CC23)cc(F)c1OCCCF` (stereo partly shown) [compound 784] stands 3.4 nM; under `COc1ccc(C2=NOC3COCC23)cc1C(=O)N[C@H]1[C@@H](C(=O)NC2(C(C)C)CC2)[C@H]2CC[C@@H]1/C2=C\C1CC1` (stereo partly shown) [compound 584], 77.3 nM; under `COc1ccc(C2=NOC3CC(C(C)O)CC23)cc1C(=O)N[C@H]1[C@@H](C(=O)Nc2ccc(F)c(C(F)(F)F)c2)[C@H]2CC[C@@H]1/C2=C\C1CC1` (stereo partly shown) [compound 844], 1.2 nM. Under `COc1ccc(C2=NOC3CC(C(C)(C)O)CC23)cc1C(=O)N[C@H]1[C@@H](C(=O)Nc2ccc(F)c(C(F)(F)F)c2)[C@H]2CC[C@@H]1/C2=C\C1CC1` (single isomer, unassigned) [compound 462] stands 3 nM; under `COc1cc(F)c(F)cc1C(=O)N[C@@H]1C2CCC(/C2=C/c2cccc(C)c2)[C@@H]1C(=O)Nc1ccc(F)c(C(F)(F)F)c1` (stereo partly shown) [compound 24], 94 nM; under `COc1cc(F)c(F)cc1C(=O)N[C@@H]1C2CCC(/C2=C/c2ccncc2)[C@@H]1C(=O)Nc1ccc(F)c(C(F)(F)F)c1` (stereo partly shown) [compound 16], 770 nM. For `COc1ccc(C2=NOC3COCC23)cc1C(=O)N[C@H]1[C@@H](C(=O)N[C@H](C)C2(C)CCC2)[C@H]2CC[C@@H]1/C2=C\C1CC1` (stereo partly shown) [compound 769], the EC50 came out at 3.3 nM. In the case of `COc1cc(F)c(F)cc1C(=O)N[C@@H]1C2CCC(/C2=C/C2=CCOC2)[C@@H]1C(=O)Nc1ccc(F)c(C(F)(F)F)c1` (stereo partly shown) [compound 58], the EC50 amounted to 1100 nM. As to `COc1ccc(-c2cccc3c2ccn3CC(C)(C)O)cc1C(=O)N[C@@H]1C2CCC(/C2=C/C2CCCC2)[C@@H]1C(=O)Nc1ccc(F)c(C(F)(F)F)c1` (stereo partly shown) [compound 895], the EC50 stood at 0.2 nM. Under `COc1ccc(C2=NO[C@H]3C[C@H](CO)CN23)cc1C(=O)N[C@H]1[C@@H](C(=O)Nc2ccc(F)c(C(F)(F)F)c2)[C@H]2CC[C@@H]1/C2=C\CCC(F)(F)F` [compound 818] stands 2.2 nM; under `COc1ccc(C2=NOC3COCC23)cc1C(=O)N[C@H]1[C@@H](C(=O)NC(C)(C)C)[C@H]2CC[C@@H]1/C2=C\C1CC1` (stereo partly shown) [compound 545], 31.5 nM; under `CNC(=O)C(OC(=O)Nc1ccccc1)c1ccc(F)c(-c2ccc(OC)c(C(=O)N[C@@H]3C4CCC(/C4=C/C4CC4)[C@@H]3C(=O)Nc3ccc(F)c(C(F)(F)F)c3)c2)c1` (stereo partly shown) [compound 237], 2 nM. Under `COc1ccc(C2=NOC3COCC23)cc1C(=O)N[C@H]1[C@@H](C(=O)N[C@H](C)C2CCC2)[C@H]2CC[C@@H]1/C2=C\C1CC1` (stereo partly shown) [compound 507] stands 12.9 nM; under `COc1ccc(C2=NOC3COCC23)cc1C(=O)N[C@H]1[C@@H](C(=O)Nc2ccc(F)c(C(F)(F)F)c2)[C@H]2CC[C@@H]1/C2=C\c1cscn1` (stereo partly shown) [compound 737], 3.2 nM.

Consider `COc1ccc(C2=NO[C@H]3CC(CO)C[C@@H]23)cc1C(=O)N[C@H]1[C@@H](C(=O)Nc2ccc(F)c(C(F)(F)F)c2)[C@H]2CC[C@@H]1/C2=C\C1CC(F)(F)C1` (stereo partly shown) [compound 840], for which the EC50 amounted to 4.5 nM.

Consider `COc1ccc(-c2cc(C(=O)O)ccc2F)cc1C(=O)NC1C2CCC(/C2=C/c2cn(C[Si](C)(C)C)nn2)[C@@H]1C(=O)Nc1ccc(F)c(C(F)(F)F)c1` (stereo partly shown) [Example 325], for which the EC50 is 4830 nM. Under `COc1cc(F)c(F)cc1C(=O)N[C@@H]1C2CCC(/C2=C/Br)[C@@H]1C(=O)Nc1ccc(F)c(C(F)(F)F)c1` (stereo partly shown) [Example 11] stands 230 nM; under `COc1cc(F)c(F)cc1C(=O)N[C@@H]1C2CCC(/C2=C/c2cccc(Cc3ccccc3)c2)[C@@H]1C(=O)Nc1ccc(F)c(C(F)(F)F)c1` (stereo partly shown) [compound 49], 200 nM. Then `COc1ccc(-c2cc(NC(=O)CC(=O)O)ccc2F)cc1C(=O)N[C@@H]1C2CCC(/C2=C/c2cnoc2)[C@@H]1C(=O)Nc1ccc(F)c(C(F)(F)F)c1` (stereo partly shown) [compound 175], with 17 nM; and `COc1ccc(C2=NOC3COCC23)cc1C(=O)N[C@H]1[C@@H](C(=O)NCc2cccnc2C)[C@H]2CC[C@@H]1/C2=C\C1CC1` (stereo partly shown) [compound 721], with 3910 nM. Under `COc1ccc(C2CCCN2C(=O)OC(C)(C)C)cc1C(=O)N[C@@H]1C2CCC(/C2=C/C2CC2)[C@@H]1C(=O)Nc1ccc(F)c(C(F)(F)F)c1` (single isomer, unassigned) [compound 694] stands 796 nM.

Consider `COc1ccc(-c2cc(C(=O)O)ccc2F)cc1C(=O)N[C@@H]1C2CCC(/C2=C/C(=O)N2CC(F)(F)C2)[C@@H]1C(=O)Nc1ccc(F)c(C(F)(F)F)c1` (stereo partly shown) [compound 324], for which the EC50 worked out at 2240 nM.

`COc1ccc(C2=NOC3CC(CO)CC23)cc1C(=O)N[C@H]1[C@@H](C(=O)N[C@H](C)C2(C)CC2)[C@H]2CC[C@@H]1/C2=C\C1CC1` (stereo partly shown) [compound 766]: the EC50 came to 2.7 nM. Regarding `CC12CC(NC(=O)[C@@H]3[C@H](NC(=O)c4cc(C5=NOC6CC(CO)CC56)cc(F)c4OCC4CC4)[C@@H]4CC[C@H]3/C4=C/C3CC3)(C1)C2` (stereo partly shown) [compound 764], the EC50 came out at 2.3 nM. `COc1ccc(-c2cc(C3OC(=O)N(c4ccccc4)C3=O)ccc2F)cc1C(=O)N[C@@H]1C2CCC(/C2=C/C2CC2)[C@@H]1C(=O)Nc1ccc(F)c(C(F)(F)F)c1` (stereo partly shown) [compound 255]: the EC50 was found to be 3 nM. As to `COc1ccc(-c2cc(C(OC(=O)NC3CCC3)C(=O)O)ccc2F)cc1C(=O)N[C@H]1[C@@H](C(=O)Nc2ccc(F)c(C(F)(F)F)c2)[C@H]2CC[C@@H]1/C2=C\C1CCCC1` (stereo partly shown) [compound 936], the EC50 came to 1.4 nM. Under `COc1c(F)cc(C2=NOC3CC(CO)CC23)cc1C(=O)N[C@H]1[C@@H](C(=O)N[C@H](C)C23CC(C2)C3)[C@H]2CC[C@@H]1/C2=C\C1CC1` (stereo partly shown) [compound 776] stands 5 nM.

Turning to `COc1ccc(C2=NOC(CC(C)(C)O)C2)cc1C(=O)N[C@H]1[C@@H](C(=O)Nc2ccc(F)c(C(F)(F)F)c2)[C@H]2CC[C@@H]1/C2=C\C1CC1` (single isomer, unassigned) [compound 528], the EC50 worked out at 22.4 nM. Then `COc1ccc(C2=NOC3CC(C)(CO)CC23)cc1C(=O)N[C@H]1[C@@H](C(=O)N[C@H](C)C2(C)CC2)[C@H]2CC[C@@H]1/C2=C\c1csc(C(F)(F)F)n1` (stereo partly shown) [compound 915], with 4 nM. Then `COc1ccc(C2=NOC3COCC23)cc1C(=O)N[C@H]1[C@@H](C(=O)N[C@@H](C)c2ccccc2C(F)(F)F)[C@H]2CC[C@@H]1/C2=C\C1CC1` (stereo partly shown) [compound 665], with 373 nM; and `COc1ccc(C2=NOC3COCC23)cc1C(=O)N[C@@H]1C2CCC(/C2=C/C2CC2)[C@@H]1C(=O)Nc1ccc(F)c(OC(F)(F)F)c1` (stereo partly shown) [compound 973], with 5.8 nM; and `COc1ccc(-c2cccc(C(=O)O)c2OC)cc1C(=O)N[C@H]1[C@@H](C(=O)Nc2ccc(F)c(C(F)(F)F)c2)[C@H]2CC[C@@H]1C2=C(C)C` [compound 101], with 580 nM. Regarding `COc1ccc(-c2cc([C@@H](C)O)on2)cc1C(=O)N[C@H]1[C@@H](C(=O)Nc2ccc(F)c(C(F)(F)F)c2)[C@H]2CC[C@@H]1/C2=C\C1CC1` [compound 500], the EC50 is 11 nM.

Broadly, the EC50 is the midpoint of the concentration-response curve.
